How the values were obtained:
Test in all cases: drug sensitivity score (DSS) from 5-point dose-response viability curve (DSS (area-under-curve based score)); higher = more sensitive (stronger growth inhibition or killing); extreme values may be limits of the assay
Conditions in all cases: exposure time: 72 h; concentration range: 5 concentrations over 10,000-fold range
[1] = system: CAOV3
Method in brief: (§1)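 Ovarian cancer and normal ovarian cell lines were tested in 384-well plates, with drugs dispensed acoustically (Echo 550) in DMSO or water at five concentrations covering a 10,000-fold range. After 1,500 cells per well were added, plates were incubated for 3 days at 37°C and 5% CO2, and viability was read by CellTiter-Glo luminescence on a PHERAstar FS. Breeze software gave a drug sensitivity score for each cell line and drug, where a higher score means greater sensitivity. A value of zero means no response.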

[2] = system: COV318
Method in brief: as §1

[3] = system: COV362
Method in brief: as §1

[4] = system: HOSE1C
Method in brief: as §1

[5] = system: HOSE2C
Method in brief: as §1

[6] = system: JHOS2
Method in brief: as §1

[7] = system: Kuramochi
Method in brief: as §1

[8] = system: OV90
Method in brief: as §1

[9] = system: OVCAR4
Method in brief: as §1

[10] = system: OVCAR5
Method in brief: as §1

[11] = system: OVCAR8
Method in brief: as §1

[12] = system: Ovsaho
Method in brief: as §1

Row | SMILES | drug sensitivity score [1] | drug sensitivity score [2] | drug sensitivity score [3] | drug sensitivity score [4] | drug sensitivity score [5] | drug sensitivity score [6] | drug sensitivity score [7] | drug sensitivity score [8] | drug sensitivity score [9] | drug sensitivity score [10] | drug sensitivity score [11] | drug sensitivity score [12]
1 | CC#CC(=O)N1CCC[C@H]1c1nc(-c2ccc(C(=O)Nc3ccccn3)cc2)c2c(N)nccn12 [Acalabrutinib] | 0 | 3.5 | 0.3 | 0 | 0 | 0.8 | 6.2 | 0 | 2.1 | 0.2 | 0 | 1
2 | COc1ccccc1S(=O)(=O)Nc1ccc2c(c1)CN(C)C(=O)N2 [PFI-1] | 7.2 | 3.1 | 3 | 3.1 | 4.3 | 2.6 | 8.7 | 5.5 | 4.4 | 5.7 | 4.8 | 8.2
3 | N#Cc1ccc(COC[C@H]2O[C@@H](n3c(NCc4ccc(Cl)c(Cl)c4)nc4c(N)ncnc43)[C@H](O)[C@@H]2O)cc1 | 3.8 | 0.1 | 0.5 | 2.7 | 5.6 | 1 | 1.4 | 3.8 | 0.3 | 4.4 | 5.5 | 4.5
4 | COC(=O)C[C@](O)(CCCC(C)(C)O)C(=O)O[C@@H]1C(OC)=C[C@]23CCCN2CCc2cc4c(cc2[C@H]13)OCO4 [Omacetaxine] | 28.7 | 17.4 | 19.2 | 31 | 18.6 | 19.3 | 18.3 | 23.3 | 20.9 | 23.4 | 24.1 | 19.5
5 | CC[C@@H]1CN(C(=O)NCC(F)(F)F)C[C@@H]1c1cnc2cnc3[nH]ccc3n12 [Upadacitinib] | 0 | 2.1 | 0.2 | 0 | 0 | 0 | 0.8 | 1.3 | 0 | 0 | 0 | 0
6 | CCC1(c2ccc(N)cc2)CCC(=O)NC1=O (stereo not given) [Aminoglutethimide] | 0.2 | 0 | 0 | 0.2 | 0 | 0 | 0 | 0 | 0 | 0 | 0 | 0
7 | COc1ccc(Cn2ccc3ccc(C(=O)NO)cc32)cc1 | 1.1 | 0 | 0 | 2.5 | 1.5 | 0.1 | 1.2 | 1.8 | 3.6 | 0.7 | 3.7 | 2.6
8 | CN1CCC(COc2cnc(-c3cccc(Cn4nc(-c5cccc(C#N)c5)ccc4=O)c3)nc2)CC1 [Tepotinib] | 0 | 0 | 0 | 0 | 0 | 0.5 | 0 | 0 | 0 | 0 | 0 | 0.8
9 | CCNC(=O)C[C@@H]1N=C(c2ccc(Cl)cc2)c2cc(OC)ccc2-n2c(C)nnc21 [Molibresib] | 8.4 | 3.3 | 2.3 | 9.8 | 10 | 4.1 | 9.3 | 8.4 | 4.3 | 7.8 | 5.7 | 9.3
10 | O=C(/C=C\n1cnc(-c2cc(C(F)(F)F)cc(C(F)(F)F)c2)n1)NNc1cnccn1 [Selinexor] | 18.7 | 8.2 | 7.9 | 29 | 9.3 | 13.9 | 8.1 | 8.2 | 10.7 | 15.3 | 17.4 | 16.5
11 | CC[C@H](Nc1ncnc2[nH]cnc12)c1nc2cccc(F)c2c(=O)n1-c1ccccc1 [Idelalisib] | 0.8 | 0.7 | 1.3 | 0.1 | 1 | 0.9 | 5.8 | 0 | 2.3 | 2.7 | 0.2 | 5.7
12 | CCN1C(=O)CNc2ncc(-c3ccc(-c4nc[nH]n4)nc3C)nc21 [CC-115] | 8 | 5.6 | 2.4 | 12 | 9.2 | 7.5 | 7.3 | 10.4 | 9.3 | 7.4 | 8.5 | 11.2
13 | N#CC[C@H](C1CCCC1)n1cc(-c2ncnc3[nH]ccc23)cn1 [Ruxolitinib] | 0 | 0 | 0 | 0 | 0 | 1 | 0 | 0.1 | 0 | 0 | 0.1 | 0
14 | C[C@@H](Oc1cc(-c2cnn(C3CCNCC3)c2)cnc1N)c1c(Cl)ccc(F)c1Cl [Crizotinib] | 0 | 0 | 0 | 0 | 0.1 | 0 | 0 | 0 | 0 | 0 | 0 | 0
15 | CN1CC[C@H](c2c(O)cc(O)c3c(=O)cc(-c4ccccc4Cl)oc23)[C@H](O)C1 [Alvocidib] | 14.9 | 11.5 | 12.1 | 18.9 | 11.9 | 14 | 16 | 14.7 | 13.3 | 16.7 | 17.8 | 15.9
16 | COc1cc2c(Oc3ccc(NC(=O)C4(C(=O)Nc5ccc(F)cc5)CC4)cc3F)ccnc2cc1OCCCN1CCOCC1 [Foretinib] | 6.9 | 1.3 | 1.2 | 1.9 | 4.5 | 0.5 | 2.7 | 3.8 | 3.2 | 5.3 | 1 | 1.9
17 | O=C(c1ccc(C(=O)N2CCC(N3CCCC3)CC2)c(Nc2ccccc2)c1)N1CCC(N2CCCC2)CC1 [UNC1215] | 0 | 0 | 0 | 0 | 0 | 0 | 0 | 0 | 0 | 0 | 0 | 0
18 | O=C1Cc2cc(C(=O)NC3C[C@H]4CC[C@@H](C3)N4S(=O)(=O)CC3CCN(CCCC(F)(F)F)CC3)c(Cl)cc2N1 (stereo not given in full) | 0 | 0 | 0 | 0 | 0 | 0 | 0 | 0.6 | 0 | 0 | 0 | 0
19 | COc1cc2nccc(Oc3ccc(NC(=O)NC4CC4)c(Cl)c3)c2cc1C(N)=O [Lenvatinib] | 0 | 0.9 | 0 | 0.4 | 2.9 | 0.1 | 0 | 0.1 | 0.6 | 0 | 0 | 0.1
20 | CC(C)(C)C[C@@H]1N[C@@H](C(=O)N[C@H]2CC[C@H](O)CC2)[C@H](c2cccc(Cl)c2F)[C@]12C(=O)Nc1cc(Cl)ccc12 | 0 | 0.3 | 1.2 | 14.7 | 16.9 | 0 | 1.5 | 2.1 | 0.1 | 0.4 | 0.4 | 1.4
21 | CC1(C)CCC(c2ccc(Cl)cc2)=C(CN2CCN(c3ccc(C(=O)NS(=O)(=O)c4ccc(N[C@H](CCN5CCOCC5)CSc5ccccc5)c(S(=O)(=O)C(F)(F)F)c4)cc3)CC2)C1 [Navitoclax] | 2.6 | 0 | 0 | 24.2 | 5.9 | 0 | 0 | 10.2 | 2 | 0.9 | 0 | 3
22 | C=CC[C@@H]1/C=C(\C)C[C@H](C)C[C@H](OC)[C@H]2O[C@@](O)(C(=O)C(=O)N3CCCC[C@H]3C(=O)O[C@H](/C(C)=C/[C@@H]3CC[C@@H](O)[C@H](OC)C3)[C@H](C)[C@@H](O)CC1=O)[C@H](C)C[C@@H]2OC [Tacrolimus] | 0.5 | 0 | 0.1 | 0.3 | 0 | 1.8 | 1 | 0 | 0.3 | 0.5 | 3.4 | 0.7
23 | O=C(Nc1cccnc1)N1CCC(Cc2cccc(Oc3ccc(C(F)(F)F)cn3)c2)CC1 [PF-3845] | 1.6 | 0 | 0 | 0 | 0 | 0 | 0 | 2 | 0.3 | 1 | 6.5 | 0
24 | O=C(Nc1cc(Cl)cc2c1[nH]c1cnccc12)c1cccnc1 [PS-1145] | 0 | 0 | 0 | 0 | 0 | 0 | 0.6 | 1 | 0.3 | 1.6 | 0 | 0
25 | CCCOc1ccn2c(C(C)=O)cc(-c3ccccc3S(C)(=O)=O)c2c1 [GSK2801] | 0 | 0 | 0 | 0 | 0 | 0 | 0.4 | 0 | 0 | 0 | 0 | 0
26 | O=C(O)c1ccc(O)c2ncccc12 [IOX-1] | 1.2 | 0 | 0 | 4.6 | 3.4 | 0 | 1.6 | 3.2 | 1.5 | 1 | 3 | 1.6
27 | C[C@@H]1C[C@H]2[C@@H]3CCC4=CC(=O)C=C[C@]4(C)[C@@]3(F)[C@@H](O)C[C@]2(C)[C@@]1(O)C(=O)CO [Dexamethasone] | 0 | 0 | 0.5 | 0 | 0 | 0 | 0 | 0 | 0 | 0 | 0 | 0
28 | CC[C@H](C)C(=O)O[C@H]1C[C@H](O)C=C2C=C[C@H](C)[C@H](CC[C@@H](O)C[C@@H](O)CC(=O)O)[C@H]21 [Pravastatin] | 0 | 0 | 0 | 0 | 0 | 0 | 0 | 0 | 0 | 0 | 0 | 0
29 | O=C(/C=C/c1cccc(S(=O)(=O)Nc2ccccc2)c1)NO [Belinostat] | 13.6 | 9.1 | 7.3 | 23.4 | 18.1 | 10 | 10.2 | 13.5 | 8.6 | 17.2 | 18.2 | 11.7
30 | Cc1ccc(C(=O)N(CCCN)[C@@H](c2oc3cc(Cl)ccc3c(=O)c2Cc2ccccc2)C(C)C)cc1 | 5.8 | 1 | 0.4 | 15.8 | 9.2 | 4.8 | 2.9 | 6.4 | 3.4 | 4.5 | 2.9 | 4.1
